Reference: patent US4450269A, “Mono-5-substituted-3-chloro-4H-1,2,6-thiadiazin-4-one antifungal agents” (FMC Corporation, priority 1980, dated 1984)
Where a name gives a salt, the structure may show the parent alone.

Test system: Sclerotinia fructicola
Assay: Mycelial growth test
Type: cell-based
Conditions: SF; for Percent Fungus Growth Inhibition: 72 hours; for inhibition at 5 ppm / inhibition at 10 ppm / inhibition at 20 ppm / inhibition at 40 ppm: Sclerotinia, 72 h, read-out: Percent Fungus Growth Inhibition
From the text: | SF = Sclerotinia fructicola

Molecule | inhibition at 5 ppm (5 ppm) [%] | inhibition at 10 ppm (10 ppm) [%] | inhibition at 20 ppm (20 ppm) [%] | inhibition at 40 ppm (40 ppm) [%] | also measured
3-chloro-5-(bromophenoxy)-4H-1,2,6-thiadiazin-4-one [Compound 33] | – | – | – | – | Percent Fungus Growth Inhibition (5 ppm): 44%; Percent Fungus Growth Inhibition (10 ppm): 61%; Percent Fungus Growth Inhibition (20 ppm): 94%; Percent Fungus Growth Inhibition (40 ppm): 100%
3-chloro-5-[methylaminocarbonyloxy)phenoxyl]-4H-1,2,6-thiadiazin-4-one [Compound 36] | – | – | – | – | Percent Fungus Growth Inhibition (5 ppm): 38%; Percent Fungus Growth Inhibition (10 ppm): 62%; Percent Fungus Growth Inhibition (20 ppm): 58%; Percent Fungus Growth Inhibition (40 ppm): 100%
O=c1c(Cl)nsnc1Oc1ccccc1 [Compound 2, 3-chloro-5-phenoxy-4H--1,2,6-thiadiazin-4-one] | 52 | 67 | 100 | 100 | –
Cc1ccc(Oc2nsnc(Cl)c2=O)cc1 [Compound 3, 3-chloro-5-(4-methylphenoxy)-4H--1,2,6-thiadiazin-4-one] | 27 | 67 | 94 | 100 | –
CC(C)(C)c1ccc(Oc2nsnc(Cl)c2=O)cc1 [Compound 4, 3-chloro-5-(4-tert-butylphnoxy)-4H--1,2,6-thiadiazin-4-one] | 0 | 0 | 4 | 0 | –
COc1ccc(Oc2nsnc(Cl)c2=O)cc1 [Compound 5, 3-chloro-5-(4-methoxyphenoxy)4H--1,2,6-thiadiazin-4-one] | 27 | 42 | 67 | 73 | –
CCCCOc1ccc(Oc2nsnc(Cl)c2=O)cc1 [Compound 6, 3-chloro-5-(4-n-butoxyphenoxy)-4H--1,2,6-thiadiazin-4-one] | 0 | 67 | 0 | 67 | –
CCOC(=O)c1ccc(Oc2nsnc(Cl)c2=O)cc1 [Compound 7, 3-chloro-5-(4-ethoxycarbonylphenoxy)-4H--1,2,6-thiadiazin-4-one] | 54 | 100 | 100 | 100 | –
CC(=O)Nc1ccc(Oc2nsnc(Cl)c2=O)cc1 [Compound 8, 5-(4-acetylaminophenoxy)-3-chloro-4H--1,2,6-thiadiazin-4-one] | 0 | 0 | 51 | 60 | –
O=c1c(Cl)nsnc1Oc1ccc([N+](=O)[O-])cc1 [Compound 9, 3-chloro-5-(4-nitrophenoxy)-4H--1,2,6-thiadiazin-4-one] | 58 | 76 | 100 | 100 | –
N#Cc1ccc(Oc2nsnc(Cl)c2=O)cc1 [Compound 10, 3-chloro-5-(4-cyanophenoxy)-4H--1,2,6-thiadiazin-4-one] | – | 33 | 100 | 100 | –
O=c1c(Cl)nsnc1Oc1ccc(F)cc1 [Compound 11, 3-chloro-5-(4-fluorophenoxy)-4H--1,2,6-thiadiazin-4-one] | 100 | 100 | 100 | 100 | –
O=c1c(Cl)nsnc1Oc1ccc(Cl)cc1 [Compound 12, 3-chloro-5-(4-chlorophenoxy)-4H--1,2,6-thiadiazin-4-one] | 64 | 82 | 100 | 100 | –
O=c1c(Cl)nsnc1Oc1cccc(Cl)c1 [Compound 13, 3-chloro-5-(3-chlorophenoxy)-4H--1,2,6-thiadiazin-4-one] | 51 | 67 | 100 | 100 | –
O=c1c(Cl)nsnc1Oc1ccccc1Cl [Compound 14, 3-chloro-5-(2-chlorophenoxy)-4H--1,2,6-thiadiazin-4-one] | 47 | 64 | 87 | 100 | –
O=c1c(Cl)nsnc1Oc1ccc(Br)cc1 [Compound 15, 3-chloro-5-(4-bromophenoxy)-4H--1,2,6-thiadiazin-4-one] | 92 | 83 | 83 | 88 | –
O=c1c(Cl)nsnc1Oc1ccc(Cl)c(Cl)c1 [Compound 16, 3-chloro-5-(3,4-dichlorophenoxy)-4H--1,2,6-thiadiazin-4-one] | 64 | 67 | 67 | 67 | –
O=c1c(Cl)nsnc1Oc1ccc(Cl)cc1Cl [Compound 17, 3-chloro-5-(2,4-dichlorophenoxy)-4H--1,2,6-thiadiazin-4-one] | 62 | 76 | 96 | 100 | –
O=c1c(Cl)nsnc1Oc1c(Cl)cccc1Cl [Compound 18, 3-chloro-5-(2,6-dichlorophenoxy)-4H--1,2,6-thiadiazin-4-one] | 51 | 64 | 89 | 100 | –
O=c1c(Cl)nsnc1Oc1cccc(Cl)c1Cl [Compound 19, 3-chloro-5-(2,3-dichlorophenoxy)-4H--1,2,6-thiadiazin-4-one] | 64 | 76 | 100 | 100 | –

Molecule | inhibition at 5 ppm (5 ppm) [%] | inhibition at 10 ppm (10 ppm) [%] | inhibition at 20 ppm (20 ppm) [%] | inhibition at 40 ppm (40 ppm) [%] | also measured
O=c1c(Cl)nsnc1Oc1cc(Cl)cc(Cl)c1 [Compound 20, 3-chloro-5-(3,5-dichlorophenoxy)-4H--1,2,6-thiadiazin-4-one] | 60 | 73 | 84 | 87 | –
Cc1cccc(Oc2nsnc(Cl)c2=O)c1 [Compound 21, 3-chloro-5-(3-methylphenoxy)-4H--1,2,6-thiadiazin-4-one] | 100 | 100 | 100 | 100 | –
Cc1ccccc1Oc1nsnc(Cl)c1=O [Compound 22, 3-chloro-5-(2-methylphenoxy)-4H--1,2,6-thiadiazin-4-one] | 24 | 100 | 100 | 100 | –
Cc1ccc(Oc2nsnc(Cl)c2=O)c(C)c1 [Compound 23, 3-chloro-5-(2,4-dimethylphenoxy)-4H--1,2,6-thiadiazin-4-one] | 82 | 100 | 100 | 100 | –
Cc1cccc(C)c1Oc1nsnc(Cl)c1=O [Compound 24, 3-chloro-5-(2,6-dimethylphenoxy)-4H--1,2,6-thiadiazin-4-one] | 100 | 100 | 100 | 100 | –
Cc1cc(C)cc(Oc2nsnc(Cl)c2=O)c1 [Compound 25, 3-chloro-5-(3,5-dimethylphenoxy)-4H--1,2,6-thiadiazin-4-one] | 82 | 100 | 100 | 100 | –
Nc1ccc(Oc2nsnc(Cl)c2=O)cc1 [Compound 26, 5-(4-aminophenoxy)-3-chloro-4H--1,2,6-thiadiazin-4-one] | – | – | – | 100 | Percent Fungus Growth Inhibition (5 ppm): 17%; Percent Fungus Growth Inhibition (10 ppm): 66%
Nc1ccc(Oc2nsnc(Cl)c2=O)cc1 [Compound 27, 5-(4-aminophenoxy)-3-chloro-4H--1,2,6-thiadiazine-4-one hydrochloride] | – | – | – | – | Percent Fungus Growth Inhibition (5 ppm, hydrochloride): 0%; Percent Fungus Growth Inhibition (10 ppm, hydrochloride): 21%; Percent Fungus Growth Inhibition (20 ppm, hydrochloride): 28%; Percent Fungus Growth Inhibition (40 ppm, hydrochloride): 86%
CNC(=O)Nc1ccc(Oc2nsnc(Cl)c2=O)cc1 [Compound 28, 3-chloro-5-[4-(3-methylureido)-phenoxy]-4H--1,2,6-thiadiazin-4-one] | 17 | 28 | 0 | 62 | –
O=C(Nc1ccccc1)Nc1ccc(Oc2nsnc(Cl)c2=O)cc1 [Compound 29, 3-chloro-5-[4-(3-phenylureido)-phenoxy]-4H--1,2,6-thiadiazin-4-one] | 28 | 31 | 0 | 7 | –
O=c1c(Cl)nsnc1Oc1c(Cl)cc(Cl)cc1Cl [Compound 30, 3-chloro-5-(2,4,6-trichlorophenoxy)-4H--1,2,6-thiadiazin-4-one] | 50 | 87 | 97 | 97 | –
O=c1c(Cl)nsnc1Oc1c(Cl)c(Cl)c(Cl)c(Cl)c1Cl [Compound 31, 3-chloro-5-(pentachlorophenoxy)-4H--1,2,6-thiadiazine-4-one] | 55 | 52 | 72 | 52 | –
O=c1c(Cl)nsnc1Oc1cccc2ccccc12 [Compound 32, 3-chloro-5(1-naphthoxy)-4H-1,2,6-thiadiazin-4-one] | 74 | 79 | 76 | 100 | –
O=c1c(Cl)nsnc1Oc1ccccc1Br [Compound 34, 3-chloro-5-(2-bromophenoxy)-4H-1,2,6,-thiadiazin-4-one] | 33 | 72 | 100 | 100 | –
O=c1c(Cl)nsnc1Oc1ccc(O)cc1 [Compound 35, 3-chloro-5-(4-hydroxyphenoxy)-4H-1,2,6-thiadiazin-4-one] | 8 | 27 | 69 | 100 | –
O=C(Nc1ccccc1)Oc1ccc(Oc2nsnc(Cl)c2=O)cc1 [Compound 37, 3-chloro-5-[4-(phenylaminocarbonyloxy)phenoxy]-4H-1,2,6,-thiadiazin-4-one] | 30 | 59 | 56 | 59 | –
CSc1ccc(Oc2nsnc(Cl)c2=O)cc1 [Compound 39, 3-chloro-5-[(4-methylthio)phenoxy]-4H-1,2,6,-thiadiazin-4-one] | 41 | 48 | 63 | 85 | –
C[S+]([O-])c1ccc(Oc2nsnc(Cl)c2=O)cc1 (centres unmarked) [Compound 40, 3-chloro-5-[(4-methylsulfinyl)phenoxy]-4H-1,2,6,-thiadiazin-4-one] | 4 | 59 | 89 | 100 | –
CS(=O)(=O)c1ccc(Oc2nsnc(Cl)c2=O)cc1 [Compound 41, 3-chloro-5-[(4-methylsulfonyl)phenoxy]-4H--1,2,6-thiadiazin-4-one] | 56 | 78 | 100 | 100 | –
CC(=O)Nc1cccc(Oc2nsnc(Cl)c2=O)c1 [Compound 42, 3-[(3-N--acetylamino)-phenoxy]-5-chloro-4H--1,2,6-thiadiazin-4-one] | 24 | 35 | 56 | 100 | –
